Tests used:
rat model of APN = test: In vivo rat model of acute pyelonephritis (APN), bacteria introduced in the bladder; settings: 7th day
Description: An in vivo experimental model of APN was used where bacteria are introduced in the bladder of rat (Gupta et al. (1995) J. Med. Microbiol. 43:33-36). Experiments were performed on outbred white female rats (180-200 g) fed ad libitum. Animal protocols were approved by the Institutional Review Boards. Rats were anesthetized with chloral hydrate (300 mg/kg, intraperitoneally(ip)). The animals were infected intraurethrally using a soft Intramedic non-radio-opaque polyethylene catheter (Clay Adams, USA). The inoculum (5 ml per kg, 1×10^8 CFU/ml of rat fecal bacterial composition) was injected slowly to avoid any leakage […]. Control animals were untreated. The therapeutic protocol of SkQR1 used to treat this pathology was as follows: […], with subsequent injections of the same amount of SkQR1 at 12, 24, 36 and 48 hrs; in total, each animal received 500 nmol SkQR1 per kg. […]
Kidney mitochondria were isolated by homogenization and differential centrifugation in a medium containing 250 mM sucrose, 20 mM HEPES-KOH, 1 mM EGTA and 0.1% BSA, pH7.4. Total mitochondrial protein was determined using a bicinchoninic acid protein assay kit (Sigma-Aldrich, USA). The mitochondria from cultured kidney cells were isolated by the same protocol.
The ROS-sensitive fluorescent probe 2,7-DCF-DA (Molecular Probes, USA) dissolved in DMEM/F12 without bicarbonate (final concentration 10 μM) was added to renal cells (500 μl per well of 24-well plate, 2 ml per dish) and incubated for 15 min at 37° C. followed by a wash with DMEM/F12 without bicarbonate. MDA was determined as in (Mihara and Uchiyama (1978) Anal. Biochem. 86:271-8). Fluorescent probe, DAF-2-DA (Calbiochem, San Diego, Calif., USA) was used for NO determination in living cells. The procedure was the same as for 2,7-DCF-DA. The nitrite/nitrate concentration (as products of NO oxidation) in culture media was determined using Nitrite/Nitrate Assay Kit (Sigma-Aldrich, USA). TNFα was determined using the kit Rat TNFα ELISA Ready-SET-Go (Ebioscience, USA).
The kidney was isolated immediately after sacrificing the animal and perfused with ice-cold PBS. It was then fixed in a 10% neutral buffered formalin solution, embedded in paraffin and used for histopathological examination. Five micrometer thick sections were cut, deparaffinized, hydrated, and stained with hematoxylin and eosin. The renal sections were examined in blinded fashion for inflammation and infiltration by leukocytes in the kidneys of all treated animals. A minimum of 10 fields for each kidney slide were examined and scored for pathologic severity.
The manifestation of inflammatory indicators (i.e., a number of infiltrated leukocytes in every layer and the presence of abscesses) under APN was evaluated using the following scale: 0, none; 1, 5-50 leukocytes in the view field; […]; 4, abscesses with pus-necrotic content. The distribution of inflammatory changes (i.e., comparative analysis of infiltration and abscesses) was evaluated by the following criteria: 0, none in any layer; 1, infiltration in the medullar layer; 2, infiltration reaching the cortex.
Kidney homogenates for MPO determination were centrifuged at 20000 g 15 min, the pellets were resuspended in 50 mM K-phosphate buffer containing 0.5% CTAB. Resulted samples were frozen and thawed three times and then centrifuged at 10600 g 10 min. Supernatants were analyzed for MPO activity in chromogenic reaction with o-phenylenediamine (OPD). 100 μl sample was mixed with 100 μl substrate buffer (25 mM Na-citrate, 50 mM Na-phosphate, 0.45 mg/ml OPD, 0.1% H2O2, pH 5.0) and was incubated 15 min at room temperature and then OD was detected at 492 nm.
Samples of kidney homogenates were loaded onto 15% Tris-glycine polyacrylamide gels (10-20 μg of total protein per lane). After electrophoresis, gels were blotted onto PVDF membranes (Amersham Pharmacia Biotech, UK). […]

[1] = test system: Human endothelial cell line EA.hy926; test: High-glucose endothelium damage, immunoblotting detection of VE-cadherin; format: cell-based; settings: 2 nM and 20 nM SkQ1 pre-incubation 4 d; 45 mM D-glucose 2 d; vs vehicle control
From the text: Human endothelial cell line EA.hy926 (ATCC Collection; catalog number CRL-2922) was used as a model of the endothelium vessel damage occurring during inflammatory process and/or diabetes. This cell line is similar to primary HUVEC cell line (Edgell et al. (1983) PNAS, 80(12):3734-7; Edgell et al. (1990) In Vitro Cell Dev. Biol., 26(12):1167-72) and widely used as a relevant model for inflammation studies (Riesbeck et al. (1998) Clin. Vaccine Immunol., 5:5675-682).
Accordingly, human endothelial cells EA.hy926 were pre-incubated with 2 nM and 20 nM of SkQ1 solution in Dulbecco's Modified Eagle's Medium (DMEM) supplemented with 10% of fetal serum (Example 1) for 4 d. Cells were then incubated 2 d with DMEM medium containing 1% FBS and 5 mM D-glucose. The cells were then incubated 2 d with 45 mM D-glucose and were then used for immunoblotting detection of VE-cadherin.

[2] = test system: Wistar rats with experimental hepatitis; test: D-galactosamin-induced experimental hepatitis; format: in vivo, rat; settings: 7 d before induction, control median 2
Description: Experimental hepatitis was induced in 8-10 weeks old Wistar rats weighing […] by intraperitoneal injection of 500 mg/kg D-galactosamin in 0.9% NaCl. SkQ1 was administered by gavage in aqueous solution at doses of 10 nmol/kg/day, 50 nmol/kg/day, 250 nmol/kg/day, and 1250 nmol/kg/day starting 7 d before induction of hepatitis and ending at the day of induction. The animals were sacrificed 24 hrs after the induction of hepatitis. Inflammation score was estimated for each animal on a 3-point scale by blind examination of hematoxylin-eosin stained liver sections.

## CC1=C(C)C(=O)C(CCCCCCCCCC[P+](c2ccccc2)(c2ccccc2)c2ccccc2)=CC1=O [SkQ1, 10-(6-plastoquinonyl)decyl-triphenylphosphonium]
Rat model of APN; SkQ1 100 nmol/kg ip on 3rd day
  leukocyte concentration in blood: significantly reduced
Rat model of APN; SkQ1 100 nmol/kg ip on 3rd day after induction, vs animals not receiving SkQ1
  neutrophils concentration in blood: twice as low
Rat model of APN; SkQ1 ip on third day after induction
  MPO activity in renal tissue (inflammation of kidney tissue): significant suppression
[1]
  VE-cadherin downregulation induced by high glucose: prevents
[2]; 50 nmol/kg/day by gavage, p<0.01
  inflammation score (3-point scale, liver sections): 1.5
[2]; 1250 nmol/kg/day by gavage, p<0.001
  inflammation score (median, 3-point scale, liver sections): 1

From patent US20160243136A1, “PHARMACEUTICAL FORMULATIONS CONTAINING MITOCHONDRIALLY TARGETED ANTIOXIDANTS” (Mitotech SA, priority 2013, published 2016)
